Data reported in ChEMBL document CHEMBL3885861, “Open TG-GATES”.

Organism: Rattus norvegicus
Experiment: Open TG-GATES - Regimen: Single
Type: toxicity, organism-based, Sprague-Dawley
Set-up: regimen Single, gender Male, age 6 weeks
Details: in vivo, po, route gavage; for APTT / Bas / Eos / Fbg / Hb / Ht / Lym / MCHC / MCV / Mono / Neu / PT / Plat / RBC / Ret / WBC: tissue Blood; for KIDNEY_L / KIDNEY_R / KIDNEY_TOTAL: tissue Kidney; for LIVER: tissue Liver
[1] = 100 mg/kg, 3 h, tissue Plasma, dose level Low
[2] = 100 mg/kg, 6 h, tissue Plasma, dose level Low
[3] = 100 mg/kg, 9 h, tissue Plasma, dose level Low
[4] = 100 mg/kg, 24 h, dose level Low
[5] = 100 mg/kg, 24 h, tissue Plasma, dose level Low
[6] = 300 mg/kg, 3 h, dose level Middle

CN(C)C(=N)N=C(N)N [METFORMIN]
APTT (100 mg/kg, 3 h, dose level Low): 16 s | Bas (100 mg/kg, 3 h, dose level Low): 0% | Eos (100 mg/kg, 3 h, dose level Low): 0.8% | Fbg (100 mg/kg, 3 h, dose level Low): 241.8 mg/dL | Hb (100 mg/kg, 3 h, dose level Low): 13.2 g/dL | Ht (100 mg/kg, 3 h, dose level Low): 39.9% | Lym (100 mg/kg, 3 h, dose level Low): 77.2% | MCHC (100 mg/kg, 3 h, dose level Low): 33.1% | MCV (100 mg/kg, 3 h, dose level Low): 65.8 fL | Mono (100 mg/kg, 3 h, dose level Low): 3.4% | Neu (100 mg/kg, 3 h, dose level Low): 18.2% | PT (100 mg/kg, 3 h, dose level Low): 12.3 s | Plat (100 mg/kg, 3 h, dose level Low): 118.9 x10_4/uL | RBC (100 mg/kg, 3 h, dose level Low): 607.2 x10_4/ul | Ret (100 mg/kg, 3 h, dose level Low): 10% | WBC (100 mg/kg, 3 h, dose level Low): 81.3 x10_2/uL | KIDNEY_L (100 mg/kg, 3 h, dose level Low): 0.9 g | KIDNEY_R (100 mg/kg, 3 h, dose level Low): 0.8 g | KIDNEY_TOTAL (100 mg/kg, 3 h, dose level Low): 1.7 g | LIVER (100 mg/kg, 3 h, dose level Low): 8.3 g | ALP [1]: 1250.2 IU/L | AST [1]: 72.4 IU/L | BUN [1]: 8.4 mg/dL | CRE [1]: 0.2 mg/dL | Ca [1]: 11.2 mg/dL | Cl [1]: 105.2 meq/L | DBIL [1]: 0.008 mg/dL | GLC [1]: 168.4 mg/dL | IP [1]: 8.7 mg/dL | K [1]: 4.3 meq/L | LDH [1]: 62.6 IU/L | Na [1]: 139.4 meq/L | PL [1]: 135.8 mg/dL | RALB [1]: 2.5 g/dL | TBIL [1]: 0.042 mg/dL | TC [1]: 83.6 mg/dL | TG [1]: 54.6 mg/dL | TP [1]: 5.1 g/dL | gamma-GTP [1]: 1.2 IU/L | TERMINAL_BW (100 mg/kg, 6 h, dose level Low): 200.6 g | APTT (100 mg/kg, 6 h, dose level Low): 16 s | Bas (100 mg/kg, 6 h, dose level Low): 0% | Eos (100 mg/kg, 6 h, dose level Low): 0.8% | Fbg (100 mg/kg, 6 h, dose level Low): 249 mg/dL | Hb (100 mg/kg, 6 h, dose level Low): 12.8 g/dL | Ht (100 mg/kg, 6 h, dose level Low): 38.8% | Lym (100 mg/kg, 6 h, dose level Low): 75.2% | MCHC (100 mg/kg, 6 h, dose level Low): 33% | MCV (100 mg/kg, 6 h, dose level Low): 63.6 fL | Mono (100 mg/kg, 6 h, dose level Low): 3.4% | Neu (100 mg/kg, 6 h, dose level Low): 19.6% | PT (100 mg/kg, 6 h, dose level Low): 12.4 s | Plat (100 mg/kg, 6 h, dose level Low): 125.3 x10_4/uL | RBC (100 mg/kg, 6 h, dose level Low): 610.4 x10_4/ul | Ret (100 mg/kg, 6 h, dose level Low): 9.8% | WBC (100 mg/kg, 6 h, dose level Low): 95.4 x10_2/uL | KIDNEY_L (100 mg/kg, 6 h, dose level Low): 0.9 g | KIDNEY_R (100 mg/kg, 6 h, dose level Low): 0.9 g | KIDNEY_TOTAL (100 mg/kg, 6 h, dose level Low): 1.7 g | LIVER (100 mg/kg, 6 h, dose level Low): 7.8 g | ALT [2]: 55.4 IU/L | AST [2]: 84.6 IU/L | BUN [2]: 8.2 mg/dL | CRE [2]: 0.1 mg/dL | Ca [2]: 10.8 mg/dL | Cl [2]: 105.4 meq/L | DBIL [2]: 0.008 mg/dL | GLC [2]: 168.4 mg/dL | IP [2]: 10.2 mg/dL | K [2]: 4.2 meq/L | LDH [2]: 71.8 IU/L | Na [2]: 139.2 meq/L | PL [2]: 124 mg/dL | RALB [2]: 2.4 g/dL | TBIL [2]: 0.046 mg/dL | TG [2]: 26.8 mg/dL | TP [2]: 5 g/dL | gamma-GTP [2]: 1.2 IU/L | TERMINAL_BW (100 mg/kg, 9 h, dose level Low): 201.1 g | APTT (100 mg/kg, 9 h, dose level Low): 16.1 s | Bas (100 mg/kg, 9 h, dose level Low): 0% | Eos (100 mg/kg, 9 h, dose level Low): 1% | Fbg (100 mg/kg, 9 h, dose level Low): 233.4 mg/dL | Hb (100 mg/kg, 9 h, dose level Low): 13 g/dL | Ht (100 mg/kg, 9 h, dose level Low): 38.8% | Lym (100 mg/kg, 9 h, dose level Low): 75.2% | MCHC (100 mg/kg, 9 h, dose level Low): 33.4% | MCV (100 mg/kg, 9 h, dose level Low): 64 fL | Mono (100 mg/kg, 9 h, dose level Low): 2.8% | Neu (100 mg/kg, 9 h, dose level Low): 20.4% | PT (100 mg/kg, 9 h, dose level Low): 12.6 s | Plat (100 mg/kg, 9 h, dose level Low): 114.4 x10_4/uL | RBC (100 mg/kg, 9 h, dose level Low): 607.4 x10_4/ul | Ret (100 mg/kg, 9 h, dose level Low): 9% | WBC (100 mg/kg, 9 h, dose level Low): 79.5 x10_2/uL | KIDNEY_L (100 mg/kg, 9 h, dose level Low): 0.9 g | KIDNEY_R (100 mg/kg, 9 h, dose level Low): 0.9 g | KIDNEY_TOTAL (100 mg/kg, 9 h, dose level Low): 1.8 g | LIVER (100 mg/kg, 9 h, dose level Low): 7.2 g | ALP [3]: 1288.4 IU/L | ALT [3]: 46.6 IU/L | AST [3]: 75 IU/L | BUN [3]: 9.8 mg/dL | CRE [3]: 0.1 mg/dL | Ca [3]: 10.7 mg/dL | Cl [3]: 105.4 meq/L | DBIL [3]: 0.01 mg/dL | GLC [3]: 166.4 mg/dL | IP [3]: 10.2 mg/dL | K [3]: 4.2 meq/L | LDH [3]: 49 IU/L | Na [3]: 140 meq/L | PL [3]: 118.4 mg/dL | RALB [3]: 2.5 g/dL | TBIL [3]: 0.044 mg/dL | TG [3]: 30 mg/dL | TP [3]: 5.1 g/dL | gamma-GTP [3]: 1 IU/L | TERMINAL_BW [4]: 208.9 g | APTT [4]: 16.6 s | Bas [4]: 0% | Eos [4]: 1% | Fbg [4]: 242.6 mg/dL | Hb [4]: 13 g/dL | Ht [4]: 38.6% | Lym [4]: 75% | MCHC [4]: 33.6% | MCV [4]: 64.8 fL | Mono [4]: 3.6% | Neu [4]: 19.8% | PT [4]: 12.4 s | Plat [4]: 109.9 x10_4/uL | RBC [4]: 596 x10_4/ul | Ret [4]: 8.8% | WBC [4]: 95.2 x10_2/uL | KIDNEY_L [4]: 0.9 g | KIDNEY_R [4]: 0.9 g | KIDNEY_TOTAL [4]: 1.8 g | LIVER [4]: 10.1 g | ALP [5]: 1691 IU/L | ALT [5]: 51.6 IU/L | AST [5]: 80.8 IU/L | BUN [5]: 14.6 mg/dL | CRE [5]: 0.2 mg/dL | Ca [5]: 11.3 mg/dL | Cl [5]: 105.2 meq/L | DBIL [5]: 0.016 mg/dL | GLC [5]: 173.6 mg/dL | IP [5]: 8.5 mg/dL | K [5]: 3.9 meq/L | LDH [5]: 81 IU/L | Na [5]: 142.6 meq/L | PL [5]: 140 mg/dL | RALB [5]: 2.6 g/dL | TBIL [5]: 0.034 mg/dL | TG [5]: 99 mg/dL | TP [5]: 5.5 g/dL | gamma-GTP [5]: 1.2 IU/L | TERMINAL_BW [6]: 201.8 g | APTT [6]: 15.4 s
